From paper PMC8132342, “Antimalarial properties and molecular docking analysis of compounds from Dioscorea bulbifera L. as new antimalarial agent candidates” (BMC Complementary Medicine and Therapies, 2021)
Like-named read-outs stand apart in the source and are kept apart here.

Assays:
[1] = tested on: chloroquine (CQ)-resistant P. falciparum (K1 strain); assay: Antimalarial activity, 3H-hypoxanthine uptake inhibition, K1 strain; type: cell-based, Plasmodium falciparum
Procedure: (§1) The culture of P. falciparum malaria parasites was continuously performed using standard methods with some modifications. RPMI-1640 medium was supplemented with noninfected type O-positive red blood cells (2% hematocrit), 2 mg/ml sodium bicarbonate, 10 μg/ml hypoxanthine (Sigma-Aldrich, New Delhi, India), 4.8 mg/ml HEPES (Himedia, Mumbai, India), 10% human AB serum and 2.5 μg/ml gentamicin (Sigma-Aldrich, New Delhi, India).
(§2) Antimalarial activity of extracts and compounds from D. bulbifera against P. falciparum K1 and 3D7 strains were assessed by measuring ^3H-hypoxanthine incorporated in parasite nucleic acids using the modified technique of Desjadins et al.. The red cell suspension at 1–2% hematocrit containing 1% ring stage P. falciparum-infected red blood cells was incubated with various concentrations of extracts (2.50–80 μg/ml) and pure compounds (2.5–80 μM) in 96-well culture plates. Parasites were incubated at 37 °C for 24 h, then ^3H-hypoxanthine (25 μl of 0.025 μCi/μl) was added to each well, and the plates were maintained under conditions of 93% N2, 3% O2 and 4% CO2 at 37 °C for an additional 24 h. The samples were transferred to a glass fiber filter (Wallac, Turku, Finland). ^3H-Hypoxanthine uptake was then assessed using a MicroBeta TriLux Liquid Scintillation Counter (PerkinElmer, USA). Each assay condition was performed in triplicate independently. The concentration of samples that inhibited the uptake of ^3H-hypoxanthine by 50% (IC50) assessed by log dose response curve using WinNonlin software version 4.1 (Pharsight Corporation, CA) was used as a marker of antimalarial effect potency.

[2] = tested on: CQ-sensitive P. falciparum (3D7 strain); assay: Antimalarial activity, 3H-hypoxanthine uptake inhibition, 3D7 strain; type: cell-based; settings: Plasmodium falciparum
Procedure: as §1, §2

[3] = In vitro cytotoxicity, MTT assay; type: cell-based; settings: African green monkey
Procedure: The toxicity of D. bulbifera extracts and isolated compounds was assessed by 3-(4,5-dimethythiazol-2-yl)-2,5-diphenyl tetrazolium bromide (MTT) assay according to a previous method. Briefly, Vero cells (Elabscience, Wuhan, Hubei, China) were seeded into 96-well plates at a density of 10^4 cell/ml and incubated for 24 h at 37 °C with 5% CO2. Cells were then treated with various concentrations of extracts and compounds for 48 h at 37 °C with 5% CO2. Doxorubicin (Sigma-Aldrich, New Delhi, India) was used as a toxic control. Subsequently, MTT solution was added to each well, and the plate was incubated for 2 h in a CO2 incubator. The medium was then removed, and 100 μl of DMSO was added to each well. Finally, the optical density was determined at a wavelength of 590 nm using a microplate reader. The assay was performed in duplicate.

[4] = Plasmodium falciparum, K1, pure compounds, P. falciparum K1 strain, mean ± S.D. of three determinations, read-out: IC50 K1
[5] = pure compounds, P. falciparum 3D7 strain, mean ± S.D. of three determinations, read-out: IC50 3D7
[6] = Vero cells, MTT, 48 h, read-out: CC50

Row | SMILES | IC50 [1, 4] | IC50 [2, 5] | CC50 at 48 h [3, 6] | further results
1 | C[C@H]1[C@H](OC(=O)CCC(=O)O)O[C@@H]2O[C@@]3(C)CC[C@H]4[C@H](C)CC[C@@H]1[C@@]24OO3 [Artesunate, artesunate, reference compound] |  |  |  | IC50 ([1]; Plasmodium falciparum, K1, positive controls (footnote d), P. falciparum K1 strain, read-out: IC50 K1): 0.00053 ± 4e-05 µM; IC50 ([2]; positive controls (footnote d), P. falciparum 3D7 strain, read-out: IC50 3D7): 0.00181 ± 0.00019 µM
2 | Oc1cc(O)cc(CCc2ccc(O)cc2O)c1 [Compound 9, 2,4,3′,5′-tetrahydroxybibenzyl] | 40 ± 2.5 µM | 58.9 ± 4.31 µM |  | CC50 at 48 h [3]: 16.7 µM
3 | COc1c(-c2ccc(O)c(O)c2)oc2cc(O)cc(OC)c2c1=O [Compound 4, 3,5-dimethoxy quercetin] | 44 ± 1.47 µM | 70.8 ± 2.32 µM | > 80 µM | 
4 | O=c1c(O)c(-c2ccc(O)cc2)oc2cc(O)cc(O)c12 [Compound 7, kaempferol] | 62.5 ± 1.33 µM | > 80 µM | > 80 µM | 
5 | O=c1c(O[C@@H]2O[C@H](CO)[C@@H](O)[C@H](O)[C@H]2O)c(-c2ccc(O)c(O)c2)oc2cc(O)cc(O)c12 [Compound 13, quercetin-3-O-β-D-glucopyranoside] | > 80 µM | > 80 µM | > 80 µM | 
6 | CCN(CC)CCCC(C)Nc1ccnc2cc(Cl)ccc12 (stereo not drawn) [Chloroquine, chloroquine, reference compound] |  |  |  | IC50 ([1]; Plasmodium falciparum, K1, read-out: IC50 K1): 0.103 ± 0.0045 µM; IC50 ([2]; 3D7, read-out: IC50 3D7): 0.00991 ± 0.00056 µM
7 | CC(=O)OC1CC2C(=O)OC(c3ccoc3)CC2(C)C2CC3CC(C(=O)O3)C12 (stereo not drawn) [Compound 1, 8-epidiosbulbin E acetate] | > 80 µM | > 80 µM | > 80 µM | 
8 | COc1cccc2c1C(=O)c1c(O)c3c(c(O)c1C2=O)C[C@@](O)(C(=O)CO)C[C@@H]3O[C@H]1C[C@H](N)[C@H](O)[C@H](C)O1 [Doxorubicin, reference compound] |  |  | 1.96 ± 0.11 µM | 
9 | CCC(C(C)C)C(C)CC(C)C1CCC2C3C=CC4CC(OC5OC(CO)C(O)C(O)C5O)CCC4(C)C3CCC12C (stereo not drawn) [Compound 3] | > 80 µM | > 80 µM |  | CC50 at 48 h [3]: > 80 µM
10 | CC(=O)OC1CC2(O)C(=O)OC(c3ccoc3)CC2(C)C2CC3CC(C(=O)O3)C12 (stereo not drawn) [Compound 2, 15,16-epoxy-6α-O-acetyl-8β-hydroxy-19-nor-clero-13(16),14-diene-17,12;18,2-diolide] | > 80 µM | > 80 µM | > 80 µM | 
11 | NC(=O)NC1NC(=O)NC1=O (stereo not drawn) [Compound 8, allantoin] | > 80 µM | > 80 µM | > 80 µM | 
12 | O=c1c(O)c(-c2ccc(O)c(O)c2)oc2cc(O)cc(O)c12 [Compound 6, quercetin] | 28.5 ± 0.9 µM | 51 ± 7.28 µM | > 80 µM | fold higher activity than 3,5-dimethoxyquercetin (4) ([1]; K1 strain): approximately 1.5 fold; fold higher activity than quercetin-3-O-β-D-galactopyranoside (14) ([1]; K1 strain): ~2 fold; inhibition at 80 µM ([1]; Plasmodium falciparum, at a concentration of 80 μM, K1 strain): 97%
13 | O=c1c(O)c(-c2cc(O)c(O)c(O)c2)oc2cc(O)cc(O)c12 [Compound 11, myricetin] | > 80 µM | > 80 µM | > 80 µM | 
14 | Oc1cc(O)c2c(c1)CCc1cc(O)c(O)cc1-2 [Compound 10, 2,4,6,7-tetrahydroxy-9,10-dihydrophenanthrene] | 58.3 ± 1.96 µM | > 80 µM | > 80 µM | 
15 | Oc1cc(O)c2c(c1)O[C@H](c1ccc(O)c(O)c1)[C@@H](O)C2 [Compound 5, (+)-catechin] | > 80 µM | > 80 µM | > 80 µM | 
16 | O=c1c(O[C@@H]2O[C@H](CO)[C@H](O)[C@H](O)[C@H]2O)c(-c2ccc(O)c(O)c2)oc2cc(O)cc(O)c12 [Compound 14, quercetin-3-O-β-D-galactopyranoside] | 48.9 µM | 68.9 ± 4.31 µM | > 80 µM | IC50 ([1]; pure compounds, P. falciparum K1 strain, mean ± S.D. of three determinations, read-out: IC50 K1): 48.3 ± 1.21 µM
